Like-named read-outs stand apart in the source and are kept apart here.
How the values were obtained:
PC-3 = assay: Cell growth inhibition, SRB assay; assay type: cell-based, human; settings: Homo sapiens
Procedure: (§1) Human cancer cells (MCF-7, H358, H460, HCT116 p53^+/+, HCT116 p53^−/−, A172, PC-3, DU-145 and SW626) were maintained in DMEM medium containing 10% Fetal Bovine Serum (FBS) (Invitrogen, Burlington, ON, Canada) and normal cells HMEC, 184A1, NHBE and PrEC were cultured in MEGM, MEGM plus transferring and cholera toxin, BEGM and PrEGM supplemented with various growth factors (Cambrex, Charles city, IA, USA), respectively.
(§2) Compounds were dissolved in DMSO and further diluted in cell culture medium for the experiments performed. Cells were seeded into 96-well plates with 1,500-5,000 cells/well according to cell growth rate. After 24 h, DMEM medium containing 10% FBS were changed to DMEM containing 3% FBS for cancer cells and additional 3% FBS were added into the culture medium for normal cells. The compound was added into the cell culture at the indicated concentrations, and the final concentration of DMSO was adjusted to a final concentration of 0.1%. Cells were subjected to either normoxic condition (20% O2) for 6 days or hypoxic condition (0.2% O2) for 2 days and then transferred to normoxic condition for 4 days. Cell viability was assessed by Sulforhodamine B (SRB) assay at Day 6.
(§3) Sulforhodamine B (SRB) (Sigma, Oakville, ON, Canada) is a water-soluble dye that binds to the basic amino acids of the cellular proteins. Thus, colorimetric measurement of the bound dye provides an estimate of the total protein mass that is related to the cell number. The cells were fixed in situ by gently aspirating off the culture media and adding 50 ul of cold 10% trichloroacetic Acid (TCA) per well and incubated at 4° C. for 30-60 min. The plates were washed five times with water and allowed to air dry for 5 min. 50 ul of 0.4% (w/v) SRB dissolved in 1% (v/v) acetic acid were added into each well, plates were then incubated at RT for 30 min for staining, washed four times with 1% acetic acid to remove any unbound dye and then allowed to air dry for 5 min. Stain was solubilized with 100 ul of 10 mM Tris pH 10.5 per well. Absorbance was read at 570 nm on a spectrophotometer. GI50 (compound concentration required for 50% of growth inhibition) was calculated using GraphPad Prism 4.0 software (GraphPad Software, Inc., San Diego, Calif., USA).
(§4) Cell viability of various cell lines treated with 3-carboxy-N,N,N-trimethyl-2-pentadecanamidopropan-1-aminium (“nPAC”) and compound of Examples S7, S63, S66, S90, S89, S67, S75 and S10 was also assessed in a manner as described above in Example 5.

H358 = assay: Cell growth inhibition, SRB assay; assay type: cell-based, human; settings: Homo sapiens
Procedure: as §1, §2, §3, §4

A172 = assay: Cell growth inhibition, SRB assay; assay type: cell-based, human; settings: Homo sapiens
Procedure: as §1, §2, §3, §4

SW626 = assay: Cell growth inhibition, SRB assay; assay type: cell-based, human; settings: Homo sapiens
Procedure: as §1, §2, §3, §4

MCF-7 = assay: Cell growth inhibition, SRB assay; assay type: cell-based, human; settings: Homo sapiens
Procedure: as §1, §2, §3, §4

[1] = system: normal cells, including human mammary epithelial cell line 184A1 and human primary epithelial cells HMEC (mammary); NHBE (lung) and PrEC (prostate); assay: Growth of normal cells, SRB assay; assay type: cell-based; settings: 184A1, HMEC, SRB assay (FIG. 2B)
Procedure: as §1, §2
(§5) Sulforhodamine B (SRB) (Sigma, Oakville, ON, Canada) is a water-soluble dye that binds to the basic amino acids of the cellular proteins. […] Absorbance was read at 570 nm on a spectrophotometer. […]

HCT116 = assay: Cell growth inhibition, SRB assay, normoxia and hypoxia; assay type: cell-based; settings: Homo sapiens
Procedure: as §1, §2, §5

SW480 = assay: Cell growth inhibition, SRB assay; assay type: cell-based, human; settings: Homo sapiens; Colon SW480, 3% FBS
Procedure: as §2, §3, §4

COLO-205 = assay: Cell growth inhibition, SRB assay; assay type: cell-based, human; settings: Homo sapiens; Colon COLO-205, 3% FBS
Procedure: as §2, §3, §4

Caov-3 = assay: Cell growth inhibition, SRB assay; assay type: cell-based, human; settings: Homo sapiens; Ovarian Caov-3, 3% FBS
Procedure: as §2, §3, §4

HCT-15 = assay: Cell growth inhibition, SRB assay; assay type: cell-based, human; settings: Homo sapiens; Colon HCT-15, 3% FBS
Procedure: as §2, §3, §4

Hs578T = assay: Cell growth inhibition, SRB assay; assay type: cell-based, human; settings: Homo sapiens, Hs-578T; Breast Hs578T, 3% FBS
Procedure: as §2, §3, §4

MDA-231 = assay: Cell growth inhibition, SRB assay; assay type: cell-based, human; settings: Homo sapiens, MDA-MB-231; Breast MDA-231, 3% FBS
Procedure: as §2, §3, §4

A54 = assay: Cell growth inhibition, SRB assay; assay type: cell-based, human; settings: Homo sapiens; Lung A54, 3% FBS
Procedure: as §2, §3, §4

SW620 = assay: Cell growth inhibition, SRB assay; assay type: cell-based, human; settings: Homo sapiens, SW-620; Colon SW620, 3% FBS
Procedure: as §2, §3, §4

HCT116 p53+/+ = assay: Cell growth inhibition, SRB assay; assay type: cell-based; settings: Homo sapiens, HCT-116, mean±SD of 2 experiments (FIG. 2)
Procedure: as §1, §2, §3

HCT116 p53−/− = assay: Cell growth inhibition, SRB assay; assay type: cell-based; settings: Homo sapiens, HCT-116, mean±SD of 2 experiments (FIG. 2)
Procedure: as §1, §2, §3

H460 = assay: Cell growth inhibition, SRB assay; assay type: cell-based; settings: Homo sapiens
Procedure: as §1, §2, §3

DU-145 = assay: Cell growth inhibition, SRB assay; assay type: cell-based; settings: Homo sapiens, mean±SD of 2 experiments (FIG. 2)
Procedure: as §1, §2, §3

CCCCCCCCc1ccc(NC(=O)N[C@H](CC(=O)[O-])C[N+](C)(C)C)cc1 [Example S7, (R)-3-(3-(4-octylphenyl)ureido)-4-(trimethylammonio)butanoate]
GI50 (PC-3; PC-3, SRB assay, mean±SD of 2 experiments (FIG. 2), read-out: GI50 for PC-3): 800 ± 300 nM | GI50 (PC-3; Prostate PC-3, 3% FBS, read-out: GI50): 700 nM | GI50 (H358; NCI-H358, 144 h, treated 6 days, SRB assay, mean±SD of 2 experiments (FIG. 1, 2), read-out: GI50 for H358): 1000 ± 300 nM | GI50 (H358; NCI-H358, Lung H358, 3% FBS, read-out: GI50): 500 nM | GI50 (A172; A 172, 144 h, A172, normoxic condition (20% O2) for 6 days, read-out: GI50 Normoxi): 3.8 ± 0.5 µM | GI50 (A172; A 172, A172, hypoxic condition (0.2% O2) for 2 days, then normoxic for 4 days, read-out: GI50 Hypoxia): 1.9 ± 0.8 µM | GI50 (A172; A 172, Brain A172, 3% FBS, read-out: GI50): 3 µM | GI50 (A172; A 172, SRB assay, mean±SD of 2 experiments (FIG. 2), read-out: GI50 for A172): 3.8 ± 0.5 µM | GI50 (SW626; SW626, SRB assay, mean±SD of 2 experiments (FIG. 2), read-out: GI50 for SW626): 800 ± 700 nM | GI50 (SW626; Ovarian SW626, 3% FBS, read-out: GI50): 800 nM | GI50 (MCF-7; MCF7, 144 h, MCF-7, normoxic condition (20% O2) for 6 days, read-out: GI50 Normoxi): 5.3 ± 1.3 µM | GI50 (MCF-7; MCF7, 144 h, treated 6 days, SRB assay, mean±SD of 2 experiments (FIG. 1, 2), read-out: GI50 for MCF-7): 5 ± 1.3 µM | GI50 (MCF-7; MCF7, Breast MCF-7, 3% FBS, read-out: GI50): 4.5 µM | GI50 (MCF-7; MCF7, MCF-7, hypoxic condition (0.2% O2) for 2 days, then normoxic for 4 days, read-out: GI50 Hypoxia): 2.5 ± 0.6 µM | growth inhibition of normal cells [1]: inhibits growth of cancer cells but not normal cells | GI50 (HCT116; HCT-116, 144 h, normoxic condition (20% O2) for 6 days, read-out: GI50 Normoxi): 9.3 ± 0.7 µM | GI50 (HCT116; HCT-116, hypoxic condition (0.2% O2) for 2 days, then normoxic for 4 days, read-out: GI50 Hypoxia): 5.7 ± 0.6 µM | GI50 (SW480): 800 nM | GI50 (COLO-205): 900 nM | GI50 (Caov-3): 1300 nM | GI50 (HCT-15): 1300 nM | GI50 (Hs578T): 33 µM | GI50 (MDA-231): 27 µM | GI50 (A54): 25 µM | GI50 (SW620): 1500 nM | GI50 (HCT116 p53+/+): 9.3 ± 1.7 µM | GI50 (HCT116 p53−/−): 13 ± 0.8 µM | GI50 (H460; NCI-H460, 144 h, H460, normoxic condition (20% O2) for 6 days, read-out: GI50 Normoxi): 8.8 ± 1.2 µM | GI50 (H460; NCI-H460, H460, hypoxic condition (0.2% O2) for 2 days, then normoxic for 4 days, read-out: GI50 Hypoxia): 2.6 ± 0.6 µM | GI50 (H460; NCI-H460, SRB assay, mean±SD of 2 experiments (FIG. 2), read-out: GI50 for H460): 8.8 ± 2 µM | GI50 (DU-145): 24 ± 2.8 µM

Source: patent US8410150B2, “Inhibitors of carnitine palmitoyltransferase and treating cancer” (University Health Network, priority 2007, dated 2013)
